Values joined by “and” are separate entries in the source; they are usually repeats but may differ in a detail not shown here. Equal entries are not always repeated.
Settings: Crystal

[Br][Ga]([Br])[Br] [gallium bromide]
Settings | vapor or sublimation pressure
300 K | 7.08e-05 kPa
302.5 K | 6.31e-05 kPa and 9.55e-05 kPa
303 K | 4.79e-05 kPa
304 K | 7.24e-05 kPa
304.5 K | 8.51e-05 kPa
305 K | 7.24e-05 kPa
306.5 K | 9.77e-05 kPa
307 K | 0.000141 kPa and 9.77e-05 kPa
307.5 K | 0.000126 kPa and 9.55e-05 kPa
308 K | 0.000126 kPa
309.5 K | 0.000145 kPa
310 K | 0.00017 kPa and 0.000123 kPa
310.5 K | 0.000141 kPa
311 K | 0.00024 kPa
311.7 K | 0.000263 kPa
312 K | 0.000214 kPa
312.5 K | 0.00017 kPa
313 K | 0.000257 kPa [middle of 4 runs]
313.5 K | 0.000219 kPa
314 K | 0.00038 kPa
314.5 K | 0.000339 kPa and 0.000219 kPa
315 K | 0.000339 kPa [middle of 4 runs]
315.5 K | 0.000263 kPa
316 K | 0.00038 kPa and 0.000245 kPa
316.5 K | 0.000288 kPa
317 K | 0.000331 kPa and 0.000295 kPa
317.5 K | 0.000525 kPa and 0.000339 kPa
318 K | 0.00055 kPa
318.5 K | 0.000513 kPa and 0.000339 kPa
319.5 K | 0.000589 kPa [middle of 4 runs]
320 K | 0.000617 kPa and 0.000363 kPa
321 K | 0.000851 kPa and 0.000759 kPa
321.5 K | 0.000575 kPa
322 K | 0.000759 kPa and 0.000912 kPa and 0.000525 kPa
322.5 K | 0.000891 kPa and 0.000589 kPa
323 K | 0.0011 kPa and 0.000977 kPa and 0.000661 kPa
323.5 K | 0.000724 kPa
324 K | 0.0011 kPa [middle of 4 runs]
324.5 K | 0.000708 kPa
325 K | 0.00141 kPa and 0.000724 kPa
325.5 K | 0.000813 kPa
326 K | 0.00141 kPa and 0.000832 kPa
326.5 K | 0.000955 kPa and 0.000832 kPa
327 K | 0.00117 kPa and 0.000977 kPa
327.5 K | 0.00151 kPa [middle of 4 runs]
328 K | 0.00191 kPa and 0.00105 kPa
328.5 K | 0.00178 kPa and 0.000977 kPa
329.5 K | 0.00148 kPa and 0.00123 kPa
330 K | 0.00251 kPa and 0.00141 kPa and 0.00158 kPa
331 K | 0.00263 kPa and 0.00257 kPa
331.5 K | 0.00204 kPa
332 K | 0.00324 kPa and 0.00191 kPa
332.5 K | 0.00174 kPa
333 K | 0.00214 kPa [middle of 4 runs]
333.5 K | 0.00331 kPa and 0.00204 kPa
334 K | 0.00398 kPa and 0.00234 kPa
335 K | 0.00437 kPa and 0.00417 kPa and 0.00191 kPa
335.5 K | 0.00263 kPa
336 K | 0.00324 kPa [middle of 4 runs]
337 K | 0.00339 kPa
338 K | 0.0055 kPa and 0.00363 kPa and 0.00309 kPa
339.5 K | 0.00525 kPa
340 K | 0.00407 kPa and 0.00427 kPa and 0.00437 kPa
340.5 K | 0.00437 kPa
341 K | 0.00759 kPa and 0.00427 kPa
342 K | 0.00501 kPa
343 K | 0.00759 kPa and 0.00589 kPa
343.5 K | 0.00603 kPa
344 K | 0.00617 kPa
344.5 K | 0.00708 kPa
345 K | 0.00661 kPa and 0.00676 kPa
346 K | 0.00794 kPa [middle of 4 runs]
346.5 K | 0.00871 kPa
347 K | 0.0135 kPa
348 K | 0.00871 kPa and 0.00955 kPa
349 K | 0.01 kPa and 0.012 kPa and 0.0105 kPa
350.5 K | 0.0115 kPa
351 K | 0.0186 kPa and 0.0117 kPa
352 K | 0.0145 kPa
354.5 K | 0.0174 kPa
357 K | 0.0195 kPa
